One series concerns human genome. The series can be described thus: Genome-wide off-target analysis by CHANGE-seq. The format is biochemical. Here is the method:
Off-target analysis via genome wide CHANGE-seq: The Gentra® Puregene® kit (Qiagen, Germantown, MD) was used to extract genomic DNA from unedited primary NK cells per the manufacturer's instructions. Genomic analysis was performed by CHANGE-Seq as described previously in the art. In short, genomic DNA underwent tagmentation with a custom Tn5-transposome, and was gap repaired with HiFi HotStart Uracil+ Ready Mix (Kapa Biosystems, Wilmington, MA). USER enzyme (NEB, Ipswich, MA) and T4 polynucleotide was then used to treat the gap-repaired DNA. DNA circularization was performed using T4 DNA ligase (NEB, Ipswich, MA), followed by treatment with a mixture of exonucleases to remove residual linear DNA. In vitro cleavage reactions were performed on the circularized DNA using SpCas9 protein (NEB, Ipswich, MA) and KLRC1 sgRNA. Cleaved products were incubated with proteinase K (NEB, Ipswich, MA), A-tailed, ligated with a hairpin adapter (NEB, Ipswich, MA), and treated with USER enzyme (NEB, Ipswich, MA). Products were amplified by PCR with the Kapa HiFi polymerase (Kapa Biosystems, Wilmington, MA), and libraries were quantified by qPCR (Kapa Biosystems, Wilmington, MA). Libraries were sequenced with 150 bp paired-end reads on the Illumina NextSeq2000 instrument. CHANGE-seq data analyses were performed as described previously.

The test system of the next series is NKG2A. The settings on record: Huang et al.; cited from earlier work.
The test system of the next series is KLRC1 gene. In words: Indel formation by NGS after Cas9 RNP nucleofection of NK-92 cells. The format is cell-based, human. The settings on record: SpCas9 RNP, NGS after two weeks of culture, exon 3. Here is the method: On-target editing analysis via Next Generation Sequencing: Genomic DNA was extracted and indel formation was analyzed via next generation sequencing (Illumina) as previously described in the art. Briefly, edited amplicons were amplified and purified using genomic PCR and SPRI cleanup, respectively. A second PCR was performed with indexing primers to attach unique dual identifiers (Illumina®) to the amplicons. After a second SPRI cleanup, samples were combined and run on the Illumina® MiniSeq™ per the manufacturer's instructions and analyzed using the CRISPR RGEN software.
The editing strategy to improve NK potency against solid tumors involves knocking out the NKG2A receptor that can inhibit cytotoxicity within solid tumors (FIG. 1A), while simultaneously conferring specificity of cytotoxicity to a target antigen on the cancer. To knock out the NKG2A receptor, three single-guide RNAs (sgRNAs) were designed against several common coding exons in the KLRC1 gene (FIG. 1B). Ribonucleoproteins (RNPs) were generated upon the complexation of these sgRNAs with SpCas9 to generate double-stranded DNA breaks at these targets within KLRC1. NK-92 cells, a human cell line derived from non-hodgkin lymphoma, were nucleofected with RNPs containing one of these sgRNAs, and assessed for insertions or deletions (indels) around the targeted site after two weeks of cell culture. […]

A further series relates to KLRC1. The settings on record: primary T cells, Bexte et al.; cited from earlier work.
Series [1] addresses T1, DNA-dependent protein kinase (DNA-PK) (Homo sapiens, UniProt P78527).
T1 construct: NK cells were nucleofected on day 4 with the RNP complex and dsDNA, and incubated with M3814 at various concentrations; endogenous in cells; host or cells: primary peripheral-blood NK cells
The format is cell-based. Here is the method: Nucleofection: NK-cells were nucleofected on day 4, unless otherwise described for optimization experiments. Post-nucleofection recovery medium (Complete NK MACS® medium (Miltenyi) with 100 IU/mL IL-2 (Peprotech) and 2 ng/mL IL-15 (Peprotech)+/−0.6 uM M3814 (Selleck Chem)) was prepared, with M3814 added at 1.2× the working concentration to account for future dilution. For M3814 related optimization experiments, multiple aliquots of post-recovery medium were prepared with a corresponding concentration of M3814. 150 μL of M3814 recovery medium was plated into individual wells of a 96-well round bottom plate for each replicate and set aside in the incubator. PB-NK cells were harvested and counted using the Countess® II FL Automated Cell Counter (Thermo Fisher Scientific) with 0.4% Trypan Blue viability stain (Thermo Fisher Scientific). 5e5 cells were aliquoted into individual 1.5 mL Eppendorf Tubes® for each nucleofection replicate. While the RNP complexes incubated, the cells were pelleted at 100 g for 10 minutes, and 3 μg (1.5 μL) of dsDNA templates were aliquoted into PCR tubes for each replicate. Following incubation, the RNP complexes were added to the dsDNA templates and were allowed to incubate for 3-5 minutes at room temperature. Cell pellets were resuspended in P3 buffer with 22% supplement (Lonza), and combined with the RNP+dsDNA mixture, for a total volume of […]. Samples were added to the 24 μL reaction cuvettes (Lonza) and were nucleofected using the EH-100 program (Lonza Amaxa™ 4D-Nucleofector®), unless specified otherwise for optimization experiments. Immediately after nucleofection, 100 μL of pre-warmed recovery medium (no M3814) was added to each of the cuvette wells, and samples were rested at 37° C. for 15 minutes. Finally, samples were transferred from the cuvette to the 96-well plate containing pre-warmed recovery medium with M3814. After 24 hours, nucleofected NK cells were combined with irradiated K562-mb15-41BBL (100 Gy) at a 1:2 ratio in complete NK MACS medium with 100 IU/mL IL-2 and 2 ng/mL IL-15.
NK cells were nucleofected on day 4 with the RNP complex and dsDNA, and incubated with M3814 at various concentrations. Nucleofected cells were expanded for one week and assayed by flow cytometry for NKG2A knock-out and transgene expression.

“And” between values parts separate entries of the source, which are not always exact repeats. Identical values can stand only once. Bounds are passed on as bounds.

For the molecule “GGTCTGAGTAGATTACTCCT(TGG) (guide GGUCUGAGUAGAUUACUCCU; listed as RNA, chemistry not given here) [gRNA1]”, in the series on human genome (CHANGE-seq), the “sites having off-target activity near a transcription start site (TSS)” value is 8 and the “sites having off-target nuclease activity within exons” value is on record as 10. The CHANGE-seq specificity ratio with human genome (on-target reads divided by sum of total reads) is on record as 0.038. In addition, in the series on NKG2A, the NKG2A knock-out entry is reported as “less than 25%” and the indel frequencies is listed as above 80%. Moreover, the indel formation in the series on KLRC1 gene was found to be 98%. Also, the indel frequency with KLRC1 is reported as 58-80%.

As for `COc1ccc([C@@H](O)c2cc(-c3ncnc4cc(N5CCOCC5)ccc34)c(F)cc2Cl)nn1` [M3814], in series [1], the “cell expansion after nucleofection” value is “did not affect cell expansion”; the “improvement of HDR outcomes” value is on record as “two-fold”; the “percent of NKG2A− cells” value is “around 75%”; the “percentage of transgene expression” value was 11.9% and 12.8%.
